Test results published in PubChem BioAssay (NCI).
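Interpolation was linear, between the two tested concentrations surrounding the appropriate level; five concentrations were tested over 48 hours in 96-well plates. TGI marks complete inhibition of growth.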

Columns and labels:
Test in all cases: growth of human tumour cells (NCI), 48 h
786-0 renal = system: 786-0 renal
A549 NSCLC = system: A549 NSCLC
ACHN renal = system: ACHN renal
BT-549 breast = system: BT-549 breast
CAKI-1 renal = system: CAKI-1 renal
COLO 205 colon = system: COLO 205 colon
DU-145 prostate = system: DU-145 prostate
EKVX NSCLC = system: EKVX NSCLC
HCC-2998 colon = system: HCC-2998 colon
HCT-116 colon = system: HCT-116 colon
HCT-15 colon = system: HCT-15 colon
HOP-62 NSCLC = system: HOP-62 NSCLC
HOP-92 NSCLC = system: HOP-92 NSCLC
HT29 colon = system: HT29 colon
IGROV1 ovarian = system: IGROV1 ovarian
KM12 colon = system: KM12 colon
LOX IMVI melanoma = system: LOX IMVI melanoma
M14 melanoma = system: M14 melanoma
MCF7 breast = system: MCF7 breast
MDA-MB-231 breast = system: MDA-MB-231 breast
MDA-MB-435 = system: MDA-MB-435
MDA-N = system: MDA-N
MOLT-4 leukemia = system: MOLT-4 leukemia
NCI-H226 lung = system: NCI-H226 lung
NCI-H23 lung = system: NCI-H23 lung
NCI-H460 lung = system: NCI-H460 lung
NCI/ADR-RES ovarian = system: NCI/ADR-RES ovarian
OVCAR-3 ovarian = system: OVCAR-3 ovarian
OVCAR-4 ovarian = system: OVCAR-4 ovarian
OVCAR-5 ovarian = system: OVCAR-5 ovarian
OVCAR-8 ovarian = system: OVCAR-8 ovarian
PC-3 prostate = system: PC-3 prostate
SF-295 CNS = system: SF-295 CNS
SF-539 CNS = system: SF-539 CNS
SK-MEL-2 melanoma = system: SK-MEL-2 melanoma
SK-MEL-28 melanoma = system: SK-MEL-28 melanoma
SK-MEL-5 melanoma = system: SK-MEL-5 melanoma
SK-OV-3 ovarian = system: SK-OV-3 ovarian
SN12C renal = system: SN12C renal
SNB-19 CNS = system: SNB-19 CNS
SNB-75 CNS = system: SNB-75 CNS
SW-620 colon = system: SW-620 colon
T-47D breast = system: T-47D breast
TK-10 renal = system: TK-10 renal
U251 CNS = system: U251 CNS
UACC-257 melanoma = system: UACC-257 melanoma
UACC-62 melanoma = system: UACC-62 melanoma
UO-31 renal = system: UO-31 renal
A498 renal = system: A498 renal
CCRF-CEM leukemia = system: CCRF-CEM leukemia
HL-60(TB) leukemia = system: HL-60(TB) leukemia
HS 578T breast = system: HS 578T breast
K-562 leukemia = system: K-562 leukemia
MALME-3M melanoma = system: MALME-3M melanoma
NCI-H522 lung = system: NCI-H522 lung
RPMI-8226 leukemia = system: RPMI-8226 leukemia
RXF 393 renal = system: RXF 393 renal
SF-268 CNS = system: SF-268 CNS

## Cc1cc(O)c(C=NC(=S)c2ccccc2)c(=O)o1
786-0 renal
  TGI: > 100 µM
A549 NSCLC
  TGI: > 100 µM
ACHN renal
  TGI: > 100 µM
BT-549 breast
  TGI: > 100 µM
CAKI-1 renal
  TGI: > 100 µM
COLO 205 colon
  TGI: > 100 µM
DU-145 prostate
  TGI: > 100 µM
EKVX NSCLC
  TGI: > 100 µM
HCC-2998 colon
  TGI: > 100 µM
HCT-116 colon
  TGI: > 100 µM
HCT-15 colon
  TGI: > 100 µM
HOP-62 NSCLC
  TGI: > 100 µM
HOP-92 NSCLC
  TGI: > 100 µM
HT29 colon
  TGI: > 100 µM
IGROV1 ovarian
  TGI: > 100 µM
KM12 colon
  TGI: > 100 µM
LOX IMVI melanoma
  TGI: > 100 µM
M14 melanoma
  TGI: > 100 µM
MCF7 breast
  TGI: > 100 µM
MDA-MB-231 breast
  TGI: > 100 µM
MDA-MB-435
  TGI: > 100 µM
MDA-N
  TGI: > 100 µM
MOLT-4 leukemia
  TGI: > 100 µM
NCI-H226 lung
  TGI: > 100 µM
NCI-H23 lung
  TGI: > 100 µM
NCI-H460 lung
  TGI: > 100 µM
NCI/ADR-RES ovarian
  TGI: > 100 µM
OVCAR-3 ovarian
  TGI: > 100 µM
OVCAR-4 ovarian
  TGI: > 100 µM
OVCAR-5 ovarian
  TGI: > 100 µM
OVCAR-8 ovarian
  TGI: > 100 µM
PC-3 prostate
  TGI: > 100 µM
SF-295 CNS
  TGI: > 100 µM
SF-539 CNS
  TGI: > 100 µM
SK-MEL-2 melanoma
  TGI: > 100 µM
SK-MEL-28 melanoma
  TGI: > 100 µM
SK-MEL-5 melanoma
  TGI: > 100 µM
SK-OV-3 ovarian
  TGI: > 100 µM
SN12C renal
  TGI: > 100 µM
SNB-19 CNS
  TGI: > 100 µM
SNB-75 CNS
  TGI: > 100 µM
SW-620 colon
  TGI: > 100 µM
T-47D breast
  TGI: > 100 µM
TK-10 renal
  TGI: > 100 µM
U251 CNS
  TGI: > 100 µM
UACC-257 melanoma
  TGI: > 100 µM
UACC-62 melanoma
  TGI: > 100 µM
UO-31 renal
  TGI: > 100 µM

## NCCCCN(CCCN)Cc1ccc2ccccc2c1
786-0 renal
  TGI: > 100 µM
A498 renal
  TGI: > 100 µM
A549 NSCLC
  TGI: > 100 µM
ACHN renal
  TGI: 53.8 µM
BT-549 breast
  TGI: > 100 µM
CAKI-1 renal
  TGI: 33 µM
CCRF-CEM leukemia
  TGI: > 100 µM
COLO 205 colon
  TGI: > 100 µM
DU-145 prostate
  TGI: > 100 µM
EKVX NSCLC
  TGI: > 100 µM
HCC-2998 colon
  TGI: 27.3 µM
HCT-116 colon
  TGI: > 100 µM
HCT-15 colon
  TGI: > 100 µM
HL-60(TB) leukemia
  TGI: > 100 µM
HOP-92 NSCLC
  TGI: > 100 µM
HS 578T breast
  TGI: 42.9 µM
HT29 colon
  TGI: > 100 µM
IGROV1 ovarian
  TGI: > 100 µM
K-562 leukemia
  TGI: > 100 µM
KM12 colon
  TGI: > 100 µM
LOX IMVI melanoma
  TGI: > 100 µM
M14 melanoma
  TGI: > 100 µM
MALME-3M melanoma
  TGI: > 100 µM
MCF7 breast
  TGI: > 100 µM
MDA-MB-231 breast
  TGI: > 100 µM
MDA-MB-435
  TGI: > 100 µM
MDA-N
  TGI: 51.7 µM
MOLT-4 leukemia
  TGI: > 100 µM
NCI-H226 lung
  TGI: > 100 µM
NCI-H23 lung
  TGI: > 100 µM
NCI-H460 lung
  TGI: 55.2 µM
NCI-H522 lung
  TGI: 37.6 µM
NCI/ADR-RES ovarian
  TGI: > 100 µM
OVCAR-4 ovarian
  TGI: > 100 µM
OVCAR-5 ovarian
  TGI: > 100 µM
OVCAR-8 ovarian
  TGI: > 100 µM
RPMI-8226 leukemia
  TGI: > 100 µM
RXF 393 renal
  TGI: > 100 µM
SF-268 CNS
  TGI: 44 µM
SF-295 CNS
  TGI: > 100 µM
SF-539 CNS
  TGI: > 100 µM
SK-MEL-28 melanoma
  TGI: > 100 µM
SK-MEL-5 melanoma
  TGI: > 100 µM
SK-OV-3 ovarian
  TGI: > 100 µM
SN12C renal
  TGI: 46.3 µM
SNB-19 CNS
  TGI: 55 µM
SNB-75 CNS
  TGI: 22.8 µM
SW-620 colon
  TGI: > 100 µM
T-47D breast
  TGI: > 100 µM
TK-10 renal
  TGI: > 100 µM
U251 CNS
  TGI: > 100 µM
UACC-257 melanoma
  TGI: > 100 µM
UACC-62 melanoma
  TGI: > 100 µM
UO-31 renal
  TGI: 71 µM
